Data taken from the NIST ThermoML archive (doi:10.1021/je800110r).

Settings: 303.16 K, Liquid, Vibrating tube method

CCCCCCCCCC [decane]
Settings	mass density [kg/m3]
9263 kPa	729.6
9277 kPa	729.6
9288 kPa	729.7
9302 kPa	729.7
9321 kPa	729.7
9332 kPa	729.7
9348 kPa	729.7
9360 kPa	729.7
9372 kPa	729.7
9392 kPa	729.7
9407 kPa	729.8
9419 kPa	729.8
9433 kPa	729.7
9449 kPa	729.9
9461 kPa	729.8
9473 kPa	729.8
9491 kPa	729.7
9509 kPa	729.9
9521 kPa	729.8
9535 kPa	729.8
9552 kPa	729.9
9566 kPa	729.8
9581 kPa	729.7
9595 kPa	729.9
9608 kPa	729.9
9624 kPa	729.9
9639 kPa	729.8
9655 kPa	729.9
9672 kPa	730
9685 kPa	729.8
9704 kPa	729.9
9725 kPa	730
9738 kPa	730
9754 kPa	730
9767 kPa	730.2
9778 kPa	730
9793 kPa	730.1
9808 kPa	729.9
9820 kPa	730
9831 kPa	730.1
9841 kPa	730.1
9855 kPa	730.1
9870 kPa	730.1
9881 kPa	730.2
9900 kPa	730.1
9913 kPa	730.1
9921 kPa	730.2
9935 kPa	730.2
9946 kPa	730.2
9956 kPa	730.2
9969 kPa	730.2
9979 kPa	730.1
9992 kPa	730.3
10003 kPa	730.3
10021 kPa	730.1
10032 kPa	730.2
10048 kPa	730.2
10090 kPa	730.4
10106 kPa	730.3
10117 kPa	730.4
10132 kPa	730.2
10145 kPa	730.3
10164 kPa	730.3
10176 kPa	730.5
10188 kPa	730.3
10206 kPa	730.3
10221 kPa	730.3
10231 kPa	730.4
10246 kPa	730.4
10276 kPa	730.4
10289 kPa	730.5
10302 kPa	730.4
10318 kPa	730.5
10331 kPa	730.4
10343 kPa	730.5
10358 kPa	730.5
10374 kPa	730.4
10385 kPa	730.4
10401 kPa	730.6
10414 kPa	730.4
10432 kPa	730.6
10446 kPa	730.4
10458 kPa	730.6
10475 kPa	730.6
10487 kPa	730.5
10499 kPa	730.6
10515 kPa	730.7
10527 kPa	730.7
10545 kPa	730.6
10562 kPa	730.7
10574 kPa	730.6
10584 kPa	730.6
10602 kPa	730.7
10616 kPa	730.7
10630 kPa	730.7
10646 kPa	730.7
10659 kPa	730.7
10672 kPa	730.6
10688 kPa	730.8
10707 kPa	730.8
10717 kPa	730.7
10729 kPa	730.8
10748 kPa	730.7
10765 kPa	730.9
10779 kPa	730.7
10791 kPa	730.8
10806 kPa	730.8
10823 kPa	730.8
10836 kPa	730.7
10856 kPa	730.8
10873 kPa	730.9
10886 kPa	731
10904 kPa	731
10917 kPa	731.1
10937 kPa	730.9
10954 kPa	731
10969 kPa	730.8
10986 kPa	731
11001 kPa	730.9
11014 kPa	731
11030 kPa	731.1
11049 kPa	731
11062 kPa	730.9
11082 kPa	731
11102 kPa	731.1
11116 kPa	731.1
11133 kPa	731
11149 kPa	731
11162 kPa	731
11186 kPa	731.1
11200 kPa	731.1
11216 kPa	731.1
11234 kPa	731.2
11257 kPa	731.1
11275 kPa	731.2
11291 kPa	731.2
11312 kPa	731.2
11330 kPa	731.2
11347 kPa	731.2
11365 kPa	731.2
11379 kPa	731.1
11396 kPa	731.2
11417 kPa	731.3
11436 kPa	731.3
11452 kPa	731.4
11469 kPa	731.4
11485 kPa	731.3
11504 kPa	731.4
11519 kPa	731.2
11533 kPa	731.3
11553 kPa	731.3
11570 kPa	731.4
11589 kPa	731.5
11609 kPa	731.2
11623 kPa	731.4
11643 kPa	731.3
11660 kPa	731.4
11677 kPa	731.5
11695 kPa	731.6
11712 kPa	731.6
11732 kPa	731.5
11749 kPa	731.5
11762 kPa	731.6
11782 kPa	731.5
11797 kPa	731.5
11820 kPa	731.6
11843 kPa	731.7
11858 kPa	731.6
11881 kPa	731.7
11901 kPa	731.7
11916 kPa	731.7
11942 kPa	731.6
11962 kPa	731.7
11978 kPa	731.6
11996 kPa	731.6
12012 kPa	731.6
12034 kPa	731.8
12055 kPa	731.8
12070 kPa	731.8
12097 kPa	731.7
12118 kPa	731.7
12135 kPa	731.8
12159 kPa	731.8
12183 kPa	731.9
12196 kPa	731.9
12215 kPa	731.9
12234 kPa	731.7
12254 kPa	731.8
12270 kPa	731.9
12289 kPa	731.9
12305 kPa	732
12321 kPa	732.1
12346 kPa	731.9
12371 kPa	732
12391 kPa	732.1
12410 kPa	732.1
12430 kPa	731.9
12452 kPa	732.1
12470 kPa	732.1
12489 kPa	732.1
12509 kPa	732
12535 kPa	732.1
12555 kPa	732
12575 kPa	732.1
12592 kPa	732.2
12618 kPa	732.2
12635 kPa	732.1
12653 kPa	732.1
12679 kPa	732.2
12702 kPa	732.3
12723 kPa	732.2
12747 kPa	732.3
12767 kPa	732.3
12785 kPa	732.3
12809 kPa	732.2
12833 kPa	732.2
12850 kPa	732.4
12872 kPa	732.4
12896 kPa	732.5
12917 kPa	732.4
12942 kPa	732.3
12960 kPa	732.4
12984 kPa	732.4
13003 kPa	732.3
13025 kPa	732.5
13047 kPa	732.5
13074 kPa	732.6
13102 kPa	732.6
13121 kPa	732.4
13143 kPa	732.6
13165 kPa	732.5
13187 kPa	732.5
13210 kPa	732.5
13232 kPa	732.6
13251 kPa	732.6
13274 kPa	732.8
13296 kPa	732.7
13316 kPa	732.6
13344 kPa	732.6
13373 kPa	732.6
13393 kPa	732.7
13422 kPa	732.8
13451 kPa	732.7
13471 kPa	732.9
13501 kPa	732.8
13528 kPa	732.7
13551 kPa	732.8
13581 kPa	732.8
13605 kPa	732.9
13631 kPa	732.9
13656 kPa	733
13679 kPa	733
13699 kPa	733.1
13723 kPa	732.9
13747 kPa	732.9
13776 kPa	733
13797 kPa	732.9
13819 kPa	733.1
13850 kPa	733
13875 kPa	733.2
13903 kPa	733.1
13931 kPa	733.1
13957 kPa	733.1
13985 kPa	733.2
14017 kPa	733.2
14039 kPa	733.2
14064 kPa	733.2
14097 kPa	733.2
14129 kPa	733.3
14154 kPa	733.3
14184 kPa	733.4
14209 kPa	733.3
14239 kPa	733.4
14262 kPa	733.4
